Laboratory results: patent publication US6946253B2, “Herpes zinc finger motifs” (University Court of the University of Glasgow, priority 2000, dated 2005)

Legend:
[1] = system: HSV-2; assay: Plaque reduction assay in BHK21/C13 cells; assay type: cell-based, herpes simplex virus type 2; conditions: HSV-2, plaque reduction assay
Description: Plaque reduction assay. Confluent monolayers (4×10^6 cells) of BHK21/C13 cells were preincubated with the appropriate drug concentration, 0.1% DMSO(v/v) or mock treated as a control for 24 h and subsequently infected at a moi of 400 pfu/plate with either HSV-1 or HSV-2 and incubated for 48 h at 37° C. […] Tests of each drug concentration were performed in triplicate and the average of the 3 plates calculated. […]
(§1) Plaquing Efficiency in the Presence of ADA and DIBA. To determine if the reduction in virus yield seen in the previous experiment was due to a virucidal effect, inhibition of virus entry (adsorption penetration) or intracellular replication, a plaque reduction assay was carried out. Here, the ability of the virus to plaque was measured. An effect on the stability of the virus particle or virus entry would lead to a reduction in the number of plaques compared to the control untreated plates for a given amount of virus. In contrast, an effect on intracellular virus replication would not lead to a significant reduction in plaques.

[2] = system: HSV-2 strain HG52; assay: Virus replication (virus yield) in BHK21/C13 cells; assay type: cell-based, herpes simplex virus type 2; conditions: experiment 2 (Table 2), moi 5, 24 h pi
Description: (§2) Virus replication. Semi-confluent monolayers of BHK21/C13 cells (2×10^6) were pre-incubated with the appropriate drug concentration, 0.1% DMSO (v/v) or mock treated as a control for 24 h and subsequently infected at a multiplicity of infection (moi) of 5 plaque forming units (pfu)/cell with either herpes simplex virus type 1 (HSV-1) strain 17 or HSV-2 strain HG52 and harvested 24 h post-infection (pi). The virus yield was determined by releasing the virus into the supernatant by sonication and titration on BHK21/C13 cells. Results were expressed as pfu/10^6 cells and % reduction in yield as compared to the untreated control (23).
(§3) Antiviral effect of ADA and DIBA. Two experiments were carried out. In the first, the effect of varying concentrations of ADA and DIBA on the replication of HSV-1 was analysed. In the second, the effect on both HSV-1 and HSV-2 was determined.

[3] = system: baby hamster kidney BHK21/C13 cells; assay: Cytotoxicity, Trypan Blue exclusion staining; assay type: cell-based; conditions: 100 μM (highest concentration), up to 4 days
Description: Cytotoxicity. Both compounds azodicarbonamide (ADA, NSC 674447) and 2,2′,-dithiobisbenzamide (DIBA, NSC 654077) were dissolved at the appropriate concentration in 0.1% (v/v) dimethylsulphoxide (DMSO) in Eagle's modified medium. Confluent monolayers (2×10^6) of baby hamster kidney BHK21/C13 cells were incubated with various concentrations of either ADA or DIBA (1,10,100 μM) or as a control 0.1% (v/v) DMSO, and cell viability determined every day for 4 days by Trypan Blue exclusion staining (23).
Determination or cytotoxicity of ADA and DIBA. In view of the distinctive sequence conservation of the IE63 zinc finger two previously known zinc-ejecting anti-HIV-1 compounds, 2,2′-dithiobisbenzamide (DIBA) and azodicarbonamide (ADA) were tested for their effect on herpesvirus. To separate any effect on cell viability from a specific effect on virus replication, the effect of incubating BHK21/C13 cells in various concentrations of ADA, DIBA, and 0.1% (v/v) DMSO as a control, for up to 4 days was determined. Even at the highest concentration used (100 μM) 95% of the cells were viable compared to untreated BHK21/C13 cells (data not shown). Indeed any cytotoxicity observed was due to the DMSO in which the drugs were dissolved, as the cytotoxicity was equally great in those cells incubated with only DMSO (data not shown).

[4] = system: HSV-1; assay: Plaque reduction assay in BHK21/C13 cells; assay type: cell-based, herpes simplex virus type 1; conditions: HSV-1, plaque reduction assay
Description: Plaque reduction assay. Confluent monolayers (4×10^6 cells) of BHK21/C13 cells were preincubated with the appropriate drug concentration, 0.1% DMSO(v/v) or mock treated as a control for 24 h and subsequently infected at a moi of 400 pfu/plate with either HSV-1 or HSV-2 and incubated for 48 h at 37° C. […] Tests of each drug concentration were performed in triplicate and the average of the 3 plates calculated. Results were expressed as pfu/plate and % of the number of plaques on the untreated control plates (23).
as §1

[5] = system: herpes simplex virus type 1 (HSV-1) strain 17; assay: Virus replication (virus yield) in BHK21/C13 cells; assay type: cell-based; conditions: moi 5, 24 h pi
Description: as §2, §3

[6] = experiment 1 (Table 1), HSV-1, 1 μM
[7] = experiment 1 (Table 1), HSV-1, 10 μM
[8] = experiment 1 (Table 1), HSV-1, 100 μM
[9] = experiment 2 (Table 2), HSV-1, 1 μM
[10] = experiment 2 (Table 2), HSV-1, 10 μM
[11] = experiment 2 (Table 2), HSV-1, 100 μM

SMILES | size of the plaques [1] | % UNTREATED CONTROL (virus yield) ([2]; HSV-2, 1 μM) [%] | VIRUS YIELD (pfu/10^6 BHK cells) ([2]; HSV-2, 1 μM) | VIRUS YIELD (pfu/BHK cell) ([2]; HSV-2, 1 μM) | % UNTREATED CONTROL (virus yield) ([2]; HSV-2, 10 μM) [%] | VIRUS YIELD (pfu/10^6 BHK cells) ([2]; HSV-2, 10 μM) | VIRUS YIELD (pfu/BHK cell) ([2]; HSV-2, 10 μM) | VIRUS YIELD (pfu/10^6 BHK cells) ([2]; HSV-2, 100 μM) | VIRUS YIELD (pfu/BHK cell) ([2]; HSV-2, 100 μM) | cells viable compared to untreated BHK21/C13 cells [3] [%] | size of the plaques [4] | % UNTREATED CONTROL (virus yield) [5, 6] [%] | VIRUS YIELD (pfu/10^6 BHK cells) [5, 6] | VIRUS YIELD (pfu/BHK cell) [5, 6] [pfu/BHK cell] | % UNTREATED CONTROL (virus yield) [5, 7] [%] | VIRUS YIELD (pfu/10^6 BHK cells) [5, 7] | VIRUS YIELD (pfu/BHK cell) [5, 7] [pfu/BHK cell] | % UNTREATED CONTROL (virus yield) [5, 8] [%] | VIRUS YIELD (pfu/10^6 BHK cells) [5, 8] | VIRUS YIELD (pfu/BHK cell) [5, 8] [pfu/BHK cell] | other results
NC(=O)N=NC(N)=O [ADA, azodicarbonamide] | reduction in the size of the plaques | 13 | 9.4 × 10^6 pfu/10^6 BHK cells | 9.4 | 1.2 | 8.5 × 10^5 pfu/10^6 BHK cells | 0.85 | 2.3 × 10^5 pfu/10^6 BHK cells | 0.23 | 95 | reduction in the size of the plaques | 76 | 6.1 × 10^8 pfu/10^6 BHK cells | 610 | 19 | 1.5 × 10^8 pfu/10^6 BHK cells | 150 | 11 | 9 × 10^6 pfu/10^6 BHK cells | 9.0 | % UNTREATED CONTROL (virus yield) [5, 9]: 15%; VIRUS YIELD (pfu/10^6 BHK cells) [5, 9]: 9.3 × 10^7 pfu/10^6 BHK cells; VIRUS YIELD (pfu/BHK cell) [5, 9]: 93 pfu/BHK cell; % UNTREATED CONTROL (virus yield) [5, 10]: 1.4%; VIRUS YIELD (pfu/10^6 BHK cells) [5, 10]: 8.5 × 10^6 pfu/10^6 BHK cells; VIRUS YIELD (pfu/BHK cell) [5, 10]: 8.5 pfu/BHK cell; VIRUS YIELD (pfu/10^6 BHK cells) [5, 11]: 1.2 × 10^6 pfu/10^6 BHK cells; VIRUS YIELD (pfu/BHK cell) [5, 11]: 1.2 pfu/BHK cell
NC(=O)c1ccccc1SSc1ccccc1C(N)=O [DIBA, 2,2′-dithiobisbenzamide] | reduction in the size of the plaques | 17 | 1.2 × 10^7 pfu/10^6 BHK cells | 12 | 2 | 1.4 × 10^6 pfu/10^6 BHK cells | 1.4 | 3.1 × 10^5 pfu/10^6 BHK cells | 0.31 | 95 | reduction in the size of the plaques | 85 | 6.8 × 10^8 pfu/10^6 BHK cells | 680 | 20 | 1.6 × 10^8 pfu/10^6 BHK cells | 160 | 2.5 | 2 × 10^7 pfu/10^6 BHK cells | 20 | % UNTREATED CONTROL (virus yield) [5, 9]: 20%; VIRUS YIELD (pfu/10^6 BHK cells) [5, 9]: 1.2 × 10^8 pfu/10^6 BHK cells; VIRUS YIELD (pfu/BHK cell) [5, 9]: 120 pfu/BHK cell; % UNTREATED CONTROL (virus yield) [5, 10]: 1.6%; VIRUS YIELD (pfu/10^6 BHK cells) [5, 10]: 9.6 × 10^6 pfu/10^6 BHK cells; VIRUS YIELD (pfu/BHK cell) [5, 10]: 9.6 pfu/BHK cell; VIRUS YIELD (pfu/10^6 BHK cells) [5, 11]: 1.9 × 10^6 pfu/10^6 BHK cells; VIRUS YIELD (pfu/BHK cell) [5, 11]: 1.9 pfu/BHK cell
